The subject of one series is Cryptococcus neoformans. Briefly: Antifungal activity against Cryptococcus neoformans after 24 to 48 hrs by broth microdilution technique. In kind it is functional. On the technique in general: Broth dilution looks for growth in wells or tubes with falling amounts of substance.
Another series concerns Candida parapsilosis. Briefly: Antifungal activity against Candida parapsilosis ATCC22019 after 24 to 48 hrs by broth microdilution technique. The conditions noted are these: Lodderomyces parapsilosis. Type of series: functional.
Series [1] relates to Trichophyton mentagrophytes. As to the kind of experiment: Antifungal activity against Trichophyton mentagrophytes after 72 to 96 hrs by broth microdilution technique. In kind it is functional.
For series [2], the system named is Candida albicans. Briefly: Antifungal activity against Candida albicans after 24 to 48 hrs by broth microdilution technique. In kind it is functional.
The test system of the next series is Sporothrix schenckii. As to the kind of experiment: Antifungal activity against Sporothrix schenckii after 72 to 96 hrs by broth microdilution technique. Type of series: functional.
The test system of a further series is Aspergillus fumigatus. As to the kind of experiment: Antifungal activity against Aspergillus fumigatus after 72 to 96 hrs by broth microdilution technique. Type of series: functional.
The test system of series [3] is Candida albicans. Briefly: Anticandidal activity against Candida albicans ATCC14053 after 24 to 48 hrs by broth microdilution technique. Type of series: functional.
Series [4] concerns Candida albicans. Briefly: Anticandidal activity against Candida albicans CDRI after 24 to 48 hrs by broth microdilution technique. In kind it is functional.
The test system of series [5] is Candida albicans. As to the kind of experiment: Anticandidal activity against Candida albicans ATCC10231 after 24 to 48 hrs by broth microdilution technique. Type of series: functional.
Series [6] deals with Candida albicans. Briefly: Anticandidal activity against Candida albicans MTCC183 after 24 to 48 hrs by broth microdilution technique. In kind it is functional.
Series [7] concerns Candida albicans. Briefly: Anticandidal activity against Candida albicans ATCC-MYA 2950 after 24 to 48 hrs by broth microdilution technique. In kind it is functional.
In series [8] the test system is Candida albicans. As to the kind of experiment: Anticandidal activity against Candida albicans ATCC750 after 24 to 48 hrs by broth microdilution technique. Type of series: functional.
In series [9] the test system is Candida albicans. Briefly: Anticandidal activity against amphotericin-B resistant Candida albicans after 24 to 48 hrs by broth microdilution technique. Type of series: functional.
For series [10], the system named is L929. Briefly: Cytotoxicity against mouse L929 cells assessed as morphological changes up to 3.12 ug/ml after 24 hrs by giemsa staining based phase contrast microscopy. As to conditions: l929, 24 h. Type of series: cell-based.
The subject of series [11] is L929. Briefly: Cytotoxicity against mouse L929 cells assessed as decline in cell survival at 12.5 to 50 ug/ml after 24 hrs by spectrophotometric analysis. Type of series: cell-based. The conditions noted are these: l929, 24 h.
Series [12] deals with Candida albicans. Briefly: Anticandidal activity against Candida albicans isolated from patient after 24 to 48 hrs by broth microdilution technique. In kind it is functional.

Values after ≈ are worked out from the molar mass of the structure shown.

The values that follow come from ChEMBL document CHEMBL3217590, “Discovery of a new class of dithiocarbamates and rhodanine scaffolds as potent antifungal agents: synthesis, biology and molecular docking” (Medchemcomm, 2012).

For `COc1cc(/C=C2\SC(=S)N(Cc3ccncc3)C2=O)cc(OC)c1OC`, the minimum inhibitory concentration (MIC) is 50 µg/mL (≈ 124 µM) in the series with Cryptococcus neoformans; 50 µg/mL (≈ 124 µM) with Candida parapsilosis; 50 µg/mL (≈ 124 µM) in series [1]; 12.5 µg/mL (≈ 31.1 µM) in the series with Candida albicans [2]; 25 µg/mL (≈ 62.1 µM) in the series on Sporothrix schenckii; above 50 µg/mL with Aspergillus fumigatus.

Regarding `S=C(NCc1ccncc1)SCc1ccccc1`, the MIC with Cryptococcus neoformans was determined as 1.56 µg/mL (≈ 5.68 µM); against Candida albicans [3], 0.78 µg/mL (≈ 2.84 µM); against Candida albicans [4], 1.56 µg/mL (≈ 5.68 µM); in the series on Candida albicans [5], 1.56 µg/mL (≈ 5.68 µM); in the series on Candida parapsilosis, 1.56 µg/mL (≈ 5.68 µM); in the series with Candida albicans [6] it was 0.39 µg/mL (≈ 1.42 µM). Besides, the MIC in series [1] turned out to be 6.25 µg/mL (≈ 22.8 µM); in the series on Candida albicans [7], 1.56 µg/mL (≈ 5.68 µM); in the series with Candida albicans [2], 1.56 µg/mL (≈ 5.68 µM); against Sporothrix schenckii, 6.25 µg/mL (≈ 22.8 µM); against Candida albicans [8] it was 3.12 µg/mL (≈ 11.4 µM); with Candida albicans [9], 12.5 µg/mL (≈ 45.6 µM). For the same molecule, the results for the minimal inhibitory concentration (MIC) against Aspergillus fumigatus and in the series on Candida albicans [12] were 25 µg/mL (≈ 91.1 µM) and 1.56 µg/mL (≈ 5.68 µM), respectively. Moreover, the Activity result is reported as “Non-toxic” with L929 [10] and “Toxic” with L929 [11].

In the case of `FC(F)(F)c1ccc(CSC(=S)NCc2ccncc2)cc1`, the minimal inhibitory concentration (MIC) against Cryptococcus neoformans was determined as 1.56 µg/mL (≈ 4.56 µM); in the series on Candida albicans [4], 1.56 µg/mL (≈ 4.56 µM); in the series with Candida parapsilosis, 1.56 µg/mL (≈ 4.56 µM); against Candida albicans [6] it was 0.78 µg/mL (≈ 2.28 µM); in series [1], 6.25 µg/mL (≈ 18.3 µM); with Candida albicans [7], 1.56 µg/mL (≈ 4.56 µM). Also, the MIC stood at 1.56 µg/mL (≈ 4.56 µM) against Candida albicans [2]; 6.25 µg/mL (≈ 18.3 µM) against Sporothrix schenckii; 3.12 µg/mL (≈ 9.11 µM) against Candida albicans [8]; 12.5 µg/mL (≈ 36.5 µM) with Candida albicans [9]; 50 µg/mL (≈ 146 µM) in the series with Aspergillus fumigatus; 3.12 µg/mL (≈ 9.11 µM) with Candida albicans [12]. Also, the Activity result with L929 [10] is “Non-toxic”; in the series with L929 [11] it was “Toxic”.

Turning to `O=C1/C(=C/c2ccccc2)SC(=S)N1Cc1ccncc1`, the MIC in the series with Cryptococcus neoformans was 50 µg/mL (≈ 160 µM); against Candida parapsilosis, 50 µg/mL (≈ 160 µM); in [1], 50 µg/mL (≈ 160 µM); in the series on Candida albicans [2], 25 µg/mL (≈ 80 µM); in the series on Sporothrix schenckii it was 25 µg/mL (≈ 80 µM); in the series on Aspergillus fumigatus, above 50 µg/mL.

In the case of `O=C1/C(=C/c2ccccc2F)SC(=S)N1Cc1ccncc1`, the minimum inhibitory concentration (MIC) was 3.12 µg/mL (≈ 9.44 µM) in the series with Cryptococcus neoformans; 50 µg/mL (≈ 151 µM) in the series with Candida parapsilosis; 6.25 µg/mL (≈ 18.9 µM) in [1]; 12.5 µg/mL (≈ 37.8 µM) in the series on Candida albicans [2]; 1.56 µg/mL (≈ 4.72 µM) in the series on Sporothrix schenckii; above 50 µg/mL against Aspergillus fumigatus.

Consider `O=C1/C(=C/c2ccc(Cl)cc2)SC(=S)N1Cc1ccncc1`, for which the MIC with Cryptococcus neoformans is above 50 µg/mL; in the series with Candida parapsilosis, above 50 µg/mL; in series [1] it was above 50 µg/mL; against Candida albicans [2], 50 µg/mL (≈ 144 µM); with Sporothrix schenckii, above 50 µg/mL; against Aspergillus fumigatus, above 50 µg/mL.

With `O=C1/C(=C/c2ccc([N+](=O)[O-])cc2)SC(=S)N1Cc1ccncc1`, the MIC against Cryptococcus neoformans is above 50 µg/mL; with Candida parapsilosis, above 50 µg/mL; in [1] it was above 50 µg/mL; in the series with Candida albicans [2] it was 50 µg/mL (≈ 140 µM); in the series with Sporothrix schenckii, 25 µg/mL (≈ 69.9 µM); in the series with Aspergillus fumigatus, above 50 µg/mL.

Take `CCc1ccc(/C=C2\SC(=S)N(Cc3ccncc3)C2=O)cc1`: the MIC (in the series on Cryptococcus neoformans; against Candida parapsilosis; in [1]; against Candida albicans [2]; against Sporothrix schenckii; against Aspergillus fumigatus) was above 50 µg/mL each time.

Regarding `COc1ccc(/C=C2\SC(=S)N(Cc3ccncc3)C2=O)cc1`, the minimal inhibitory concentration (MIC) against Cryptococcus neoformans was above 50 µg/mL; in the series with Candida parapsilosis, 50 µg/mL (≈ 146 µM); in series [1] it was above 50 µg/mL; in the series with Candida albicans [2] it was 50 µg/mL (≈ 146 µM); with Sporothrix schenckii, above 50 µg/mL; in the series on Aspergillus fumigatus, above 50 µg/mL.

With `COc1ccc(/C=C2\SC(=S)N(Cc3ccncc3)C2=O)cc1OC`, the MIC was 50 µg/mL (≈ 134 µM) against Cryptococcus neoformans; 25 µg/mL (≈ 67.1 µM) against Candida parapsilosis; above 50 µg/mL in series [1]; 25 µg/mL (≈ 67.1 µM) in the series with Candida albicans [2]; above 50 µg/mL in the series on Sporothrix schenckii; above 50 µg/mL against Aspergillus fumigatus.

In the case of `O=C1/C(=C/c2cc3c(cc2[N+](=O)[O-])OCO3)SC(=S)N1Cc1ccncc1`, the minimal inhibitory concentration (MIC) came to 3.12 µg/mL (≈ 7.77 µM) against Cryptococcus neoformans; 1.56 µg/mL (≈ 3.89 µM) in the series on Candida albicans [3]; 3.12 µg/mL (≈ 7.77 µM) against Candida albicans [4]; 3.12 µg/mL (≈ 7.77 µM) in the series with Candida albicans [5]; 3.12 µg/mL (≈ 7.77 µM) against Candida parapsilosis; 3.12 µg/mL (≈ 7.77 µM) in the series on Candida albicans [6]. In addition, the MIC in [1] turned out to be 3.12 µg/mL (≈ 7.77 µM); against Candida albicans [7], 1.56 µg/mL (≈ 3.89 µM); against Candida albicans [2], 0.78 µg/mL (≈ 1.94 µM); against Sporothrix schenckii, 1.56 µg/mL (≈ 3.89 µM); in the series on Candida albicans [8], 6.25 µg/mL (≈ 15.6 µM); in the series on Candida albicans [9], 12.5 µg/mL (≈ 31.1 µM). The MIC against Aspergillus fumigatus was above 50 µg/mL; with Candida albicans [12], 1.56 µg/mL (≈ 3.89 µM). The Activity result in the series on L929 [10] is reported as “Non-toxic”; in the series on L929 [11] it was “Toxic”.

For the molecule `O=C1/C(=C/c2cccc3ccccc23)SC(=S)N1Cc1ccncc1`, the MIC in the series on Cryptococcus neoformans was 50 µg/mL (≈ 138 µM); with Candida parapsilosis, 50 µg/mL (≈ 138 µM); in [1] it was 25 µg/mL (≈ 69 µM); against Candida albicans [2] it was 25 µg/mL (≈ 69 µM); against Sporothrix schenckii, 12.5 µg/mL (≈ 34.5 µM); in the series with Aspergillus fumigatus it was above 50 µg/mL.

For the molecule `O=C1/C(=C/c2ccc(/C=C3\SC(=S)N(Cc4ccncc4)C3=O)cc2)SC(=S)N1Cc1ccncc1`, the MIC (against Cryptococcus neoformans; in the series with Candida parapsilosis; in series [1]; with Candida albicans [2]; against Sporothrix schenckii; in the series with Aspergillus fumigatus) was above 50 µg/mL in each case.

`O=C1/C(=C/c2ccc(OCCOc3ccc(/C=C4\SC(=S)N(Cc5ccncc5)C4=O)cc3)cc2)SC(=S)N1Cc1ccncc1`: the minimal inhibitory concentration (MIC) (with Cryptococcus neoformans; with Candida parapsilosis; in series [1]; in the series on Candida albicans [2]; with Sporothrix schenckii; in the series on Aspergillus fumigatus) was above 50 µg/mL each time.

As to `O=C1/C(=C/c2ccc(OCCCOc3ccc(/C=C4\SC(=S)N(Cc5ccncc5)C4=O)cc3)cc2)SC(=S)N1Cc1ccncc1`, the minimal inhibitory concentration (MIC) (against Cryptococcus neoformans; against Candida parapsilosis; in series [1]; in the series with Candida albicans [2]; in the series on Sporothrix schenckii; against Aspergillus fumigatus) was above 50 µg/mL throughout.

Take `O=C1/C(=C/c2ccc(OCCCCOc3ccc(/C=C4\SC(=S)N(Cc5ccncc5)C4=O)cc3)cc2)SC(=S)N1Cc1ccncc1`: the minimal inhibitory concentration (MIC) (in the series on Cryptococcus neoformans; with Candida parapsilosis; in series [1]; against Candida albicans [2]; against Sporothrix schenckii; in the series on Aspergillus fumigatus) was above 50 µg/mL throughout.

Regarding `O=C1/C(=C/c2ccc(OCCCCCOc3ccc(/C=C4\SC(=S)N(Cc5ccncc5)C4=O)cc3)cc2)SC(=S)N1Cc1ccncc1`, the MIC (with Cryptococcus neoformans; in the series on Candida parapsilosis; in series [1]; in the series with Candida albicans [2]; against Sporothrix schenckii; against Aspergillus fumigatus) was above 50 µg/mL each time.

For the molecule `Clc1ccccc1C(c1ccccc1)(c1ccccc1)n1ccnc1` [CLOTRIMAZOLE], the MIC was 0.25 µg/mL (≈ 0.725 µM) against Cryptococcus neoformans; 0.5 µg/mL (≈ 1.45 µM) against Candida parapsilosis; 2 µg/mL (≈ 5.8 µM) in [1]; 0.25 µg/mL (≈ 0.725 µM) in the series on Candida albicans [2]; 4 µg/mL (≈ 11.6 µM) in the series with Sporothrix schenckii; 2 µg/mL (≈ 5.8 µM) with Aspergillus fumigatus.

With `OC(Cn1cncn1)(Cn1cncn1)c1ccc(F)cc1F` [FLUCONAZOLE], the MIC with Cryptococcus neoformans was found to be 2 µg/mL (≈ 6.53 µM); with Candida albicans [3] it was 0.25 µg/mL (≈ 0.816 µM); with Candida albicans [4] it was 0.125 µg/mL (≈ 0.408 µM); against Candida albicans [5], 1 µg/mL (≈ 3.27 µM); against Candida parapsilosis it was 0.5 µg/mL (≈ 1.63 µM); against Candida albicans [6], 4 µg/mL (≈ 13.1 µM). The MIC is 16 µg/mL (≈ 52.2 µM) in series [1]; 0.062 µg/mL (≈ 0.202 µM) against Candida albicans [7]; 1 µg/mL (≈ 3.27 µM) against Candida albicans [2]; 4 µg/mL (≈ 13.1 µM) against Sporothrix schenckii; 0.5 µg/mL (≈ 1.63 µM) in the series on Candida albicans [8]; 8 µg/mL (≈ 26.1 µM) with Candida albicans [9]. The minimum inhibitory concentration (MIC) in the series with Aspergillus fumigatus was above 32 µg/mL; against Candida albicans [12], 0.25 µg/mL (≈ 0.816 µM).

As a reminder, the MIC is the lowest concentration found to suppress growth. High values mean a need for much substance, low ones inhibition by little substance.
